# In patent US9079922B2, “2-oxo-oxazolidin-3,5-diyl antibiotic derivatives” (priority 2011, dated 2015):
# Columns and labels:
# [1] = test system: Staphylococcus aureus A798; assay: Bacterial growth minimal inhibitory concentration (microdilution, cation-adjusted Mueller-Hinton Broth); type: cell-based; settings: multiply-resistant strain, in particular quinolone resistant, read-out: MIC for S. aureus A798
# Protocol: (§1) Bacterial Growth Minimal Inhibitory Concentrations:
# (§2) Minimal inhibitory concentrations (MICs; mg/l) were determined in cation-adjusted Mueller-Hinton Broth by a microdilution method following the description given in “Methods for Dilution Antimicrobial Susceptibility Tests for Bacteria that Grow Aerobically”, Approved standard, 7th ed., Clinical and Laboratory Standards Institute (CLSI) Document M7-A7, Wayne, Pa., USA, 2006.
# (§3) All Example compounds were tested against several Gram positive and Gram negative bacteria. Staphylococcus aureus A798 and Acinetobacter baumanii T6474 are multiply-resistant strains, in particular quinolone resistant.
# [2] = test system: Acinetobacter baumanii T6474; assay: as above; type: cell-based; settings: Acinetobacter baumannii, multiply-resistant strain, in particular quinolone resistant
# Protocol: as §1, §2, §3
smiles,measurement,setting,value
"O=C1COc2ccc(N3C[C@H](CNC4CN(c5nc6c(cc5F)c(=O)c5c(O)nsc5n6C5CC5)C4)OC3=O)nc2N1 [Example 24, 9-cyclopropyl-6-fluoro-3-hydroxy-7-(3-{[(S)-2-oxo-3-(3-oxo-3,4-dihydro-2H-pyrido[3,2-b][1,4]oxazin-6-yl)-oxazolidin-5-ylmethyl]-amino}-azetidin-1-yl)-9H-1-thia-2,8,9-triaza-cyclopenta[b]naphthalen-4-one]",MIC,[1],≤ 0.016 µg/mL
same,MIC,[2],0.063 µg/mL
"O=C1COc2ccc(N3C[C@H](CNC[C@@H]4CCN(c5nc6c(cc5F)c(=O)c(C(=O)O)cn6C5CC5)C4)OC3=O)nc2N1 [Example 22, 1-cyclopropyl-6-fluoro-4-oxo-7-[(S)-3-({[(S)-2-oxo-3-(3-oxo-3,4-dihydro-2H-pyrido[3,2-b][1,4]oxazin-6-yl)-oxazolidin-5-ylmethyl]-amino}-methyl)-pyrrolidin-1-yl]-1,4-dihydro-[1,8]naphthyridine-3-carboxylic acid]",MIC,[1],0.125 µg/mL
same,MIC,[2],0.031 µg/mL
"O=C1COc2ccc(N3C[C@H](CNC4CCN(c5nc6c(cc5F)c(=O)c(C(=O)O)cn6C5CC5)C4)OC3=O)nc2N1 (mixture of isomers) [Example 21, 1-cyclopropyl-6-fluoro-4-oxo-7-((RS)-3-{[(S)-2-oxo-3-(3-oxo-3,4-dihydro-2H-pyrido[3,2-b][1,4]oxazin-6-yl)-oxazolidin-5-ylmethyl]-amino}-pyrrolidin-1-yl)-1,4-dihydro-[1,8]naphthyridine-3-carboxylic acid]",MIC,[1],0.125 µg/mL
same,MIC,[2],0.25 µg/mL
"O=C1CSc2ccc(N3C[C@@H](CNC4CN(c5ccc6c(=O)c(C(=O)O)cn(C7CC7)c6n5)C4)OC3=O)cc2N1 [Example 10, 1-cyclopropyl-4-oxo-7-(3-{[(R)-2-oxo-3-(3-oxo-3,4-dihydro-2H-benzo[1,4]thiazin-6-yl)-oxazolidin-5-ylmethyl]-amino}-azetidin-1-yl)-1,4-dihydro-[1,8]naphthyridine-3-carboxylic acid]",MIC,[1],0.063 µg/mL
same,MIC,[2],0.25 µg/mL
"COc1c(N2CC(NC[C@@H]3CN(c4ccc5c(n4)NC(=O)CO5)C(=O)O3)C2)ccc2c(=O)c(C(=O)O)cn(C3CC3)c12 [Example 8, 1-cyclopropyl-8-methoxy-4-oxo-7-(3-{[(R)-2-oxo-3-(3-oxo-3,4-dihydro-2H-pyrido[3,2-b][1,4]oxazin-6-yl)-oxazolidin-5-ylmethyl]-amino}-azetidin-1-yl)-1,4-dihydro-quinoline-3-carboxylic acid]",MIC,[1],0.063 µg/mL
same,MIC,[2],0.25 µg/mL
"O=C1CSc2ccc(N3C[C@H](CN4CCN(c5nc6c(cc5F)c(=O)c(C(=O)O)cn6C5CC5)CC4)OC3=O)cc2N1 [Example 16, 1-cyclopropyl-6-fluoro-4-oxo-7-{4-[(S)-2-oxo-3-(3-oxo-3,4-dihydro-2H-benzo[1,4]thiazin-6-yl)-oxazolidin-5-ylmethyl]-piperazin-1-yl}-1,4-dihydro-[1,8]naphthyridine-3-carboxylic acid]",MIC,[1],≤ 0.016 µg/mL
same,MIC,[2],0.125 µg/mL
"O=C1COc2ccc(N3C[C@H](CN4CCN(c5nc6c(cc5F)c(=O)c(C(=O)O)cn6C5CC5)CC4)OC3=O)nc2N1 [Example 19, 1-cyclopropyl-6-fluoro-4-oxo-7-{4-[(S)-2-oxo-3-(3-oxo-3,4-dihydro-2H-pyrido[3,2-b][1,4]oxazin-6-yl)-oxazolidin-5-ylmethyl]-piperazin-1-yl}-1,4-dihydro-[1,8]naphthyridine-3-carboxylic acid]",MIC,[1],≤ 0.016 µg/mL
same,MIC,[2],0.063 µg/mL
"O=C1CSc2ccc(N3C[C@@H](CN4CCN(c5cc6c(cc5F)c(=O)c(C(=O)O)cn6C5CC5)CC4)OC3=O)cc2N1 [Example 1, 1-cyclopropyl-6-fluoro-4-oxo-7-{4-[(R)-2-oxo-3-(3-oxo-3,4-dihydro-2H-benzo[1,4]thiazin-6-yl)-oxazolidin-5-ylmethyl]-piperazin-1-yl}-1,4-dihydro-quinoline-3-carboxylic acid]",MIC,[1],≤ 0.016 µg/mL
same,MIC,[2],0.125 µg/mL
"O=C1COc2ccc(N3C[C@H](CN4CCN(c5nc6c(cc5F)c(=O)c5c(O)nsc5n6C5CC5)CC4)OC3=O)nc2N1 [Example 25, 9-cyclopropyl-6-fluoro-3-hydroxy-7-{4-[(S)-2-oxo-3-(3-oxo-3,4-dihydro-2H-pyrido[3,2-b][1,4]oxazin-6-yl)-oxazolidin-5-ylmethyl]-piperazin-1-yl}-9H-1-thia-2,8,9-triaza-cyclopenta[b]naphthalen-4-one]",MIC,[1],≤ 0.016 µg/mL
same,MIC,[2],0.125 µg/mL
"O=C1COc2ccc(N3C[C@@H](CNC4CN(c5nc6c(cc5F)c(=O)c(C(=O)O)cn6C5CC5)C4)OC3=O)nc2N1 [Example 6, 1-cyclopropyl-6-fluoro-4-oxo-7-(3-{[(R)-2-oxo-3-(3-oxo-3,4-dihydro-2H-pyrido[3,2-b][1,4]oxazin-6-yl)-oxazolidin-5-ylmethyl]-amino}-azetidin-1-yl)-1,4-dihydro-[1,8]naphthyridine-3-carboxylic acid]",MIC,[1],≤ 0.016 µg/mL
same,MIC,[2],0.031 µg/mL
"O=C1CSc2ccc(N3C[C@@H](CNC4CN(c5nc6c(cc5F)c(=O)c(C(=O)O)cn6C5CC5)C4)OC3=O)cc2N1 [Example 2, 1-cyclopropyl-6-fluoro-4-oxo-7-(3-{[(R)-2-oxo-3-(3-oxo-3,4-dihydro-2H-benzo[1,4]thiazin-6-yl)-oxazolidin-5-ylmethyl]-amino}-azetidin-1-yl)-1,4-dihydro-[1,8]naphthyridine-3-carboxylic acid]",MIC,[1],≤ 0.016 µg/mL
same,MIC,[2],0.125 µg/mL
"O=C1COc2ccc(N3C[C@@H](CNC4CN(c5nc6c(cc5F)c(=O)c(C(=O)O)cn6Cc5ccccc5)C4)OC3=O)nc2N1 [Example 13, 1-benzyl-6-fluoro-4-oxo-7-(3-{[(R)-2-oxo-3-(3-oxo-3,4-dihydro-2H-pyrido[3,2-b][1,4]oxazin-6-yl)-oxazolidin-5-ylmethyl]-amino}-azetidin-1-yl)-1,4-dihydro-[1,8]naphthyridine-3-carboxylic acid]",MIC,[1],≤ 0.016 µg/mL
same,MIC,[2],1 µg/mL
"O=C1CSc2ccc(N3C[C@@H](CN4CCN(c5cc6c(cc5F)c(=O)c(C(=O)O)cn6C5CC5)CC4)OC3=O)nc2N1 [Example 3, 1-cyclopropyl-6-fluoro-4-oxo-7-{4-[(R)-2-oxo-3-(3-oxo-3,4-dihydro-2H-pyrido[3,2-b][1,4]thiazin-6-yl)-oxazolidin-5-ylmethyl]-piperazin-1-yl}-1,4-dihydro-quinoline-3-carboxylic acid]",MIC,[1],≤ 0.016 µg/mL
same,MIC,[2],0.063 µg/mL
"O=C1COc2ccc(N3C[C@@H](CNC4CN(c5nc6c(cc5F)c(=O)c(C(=O)O)cn6CCO)C4)OC3=O)nc2N1 [Example 15, 6-fluoro-1-(2-hydroxy-ethyl)-4-oxo-7-(3-{[(R)-2-oxo-3-(3-oxo-3,4-dihydro-2H-pyrido[3,2-b][1,4]oxazin-6-yl)-oxazolidin-5-ylmethyl]-amino}-azetidin-1-yl)-1,4-dihydro-[1,8]naphthyridine-3-carboxylic acid]",MIC,[1],0.25 µg/mL
same,MIC,[2],4 µg/mL
"O=C1COc2ccc(N3C[C@@H](CN4CCN(c5nc6c(cc5F)c(=O)c(C(=O)O)cn6C5CC5)CC4)OC3=O)nc2N1 [Example 18, 1-cyclopropyl-6-fluoro-4-oxo-7-{4-[(R)-2-oxo-3-(3-oxo-3,4-dihydro-2H-pyrido[3,2-b][1,4]oxazin-6-yl)-oxazolidin-5-ylmethyl]-piperazin-1-yl}-1,4-dihydro-[1,8]naphthyridine-3-carboxylic acid]",MIC,[1],0.031 µg/mL
same,MIC,[2],0.25 µg/mL
"Cn1cc(C(=O)O)c(=O)c2ccc(N3CC(NC[C@@H]4CN(c5ccc6c(n5)NC(=O)CO6)C(=O)O4)C3)nc21 [Example 11, 1-methyl-4-oxo-7-(3-{[(R)-2-oxo-3-(3-oxo-3,4-dihydro-2H-pyrido[3,2-b][1,4]oxazin-6-yl)-oxazolidin-5-ylmethyl]-amino}-azetidin-1-yl)-1,4-dihydro-[1,8]naphthyridine-3-carboxylic acid]",MIC,[1],0.063 µg/mL
same,MIC,[2],0.063 µg/mL
"Cn1cc(C(=O)O)c(=O)c2cc(F)c(N3CC(NC[C@@H]4CN(c5ccc6c(n5)NC(=O)CO6)C(=O)O4)C3)nc21 [Example 12, 6-fluoro-1-methyl-4-oxo-7-(3-{[(R)-2-oxo-3-(3-oxo-3,4-dihydro-2H-pyrido[3,2-b][1,4]oxazin-6-yl)-oxazolidin-5-ylmethyl]-amino}-azetidin-1-yl)-1,4-dihydro-[1,8]naphthyridine-3-carboxylic acid]",MIC,[1],≤ 0.016 µg/mL
same,MIC,[2],≤ 0.016 µg/mL
"COc1c(N2CC(NC[C@@H]3CN(c4ccc5c(c4)NC(=O)CS5)C(=O)O3)C2)ccc2c(=O)c(C(=O)O)cn(C3CC3)c12 [Example 7, 1-cyclopropyl-8-methoxy-4-oxo-7-(3-{[(R)-2-oxo-3-(3-oxo-3,4-dihydro-2H-benzo[1,4]thiazin-6-yl)-oxazolidin-5-ylmethyl]-amino}-azetidin-1-yl)-1,4-dihydro-quinoline-3-carboxylic acid]",MIC,[1],0.063 µg/mL
same,MIC,[2],0.25 µg/mL
"O=C1CSc2ccc(N3C[C@@H](CN4CCN(c5nc6c(cc5F)c(=O)c(C(=O)O)cn6C5CC5)CC4)OC3=O)cc2N1 [Example 4, 1-cyclopropyl-6-fluoro-4-oxo-7-{4-[(R)-2-oxo-3-(3-oxo-3,4-dihydro-2H-benzo[1,4]thiazin-6-yl)-oxazolidin-5-ylmethyl]-piperazin-1-yl}-1,4-dihydro-[1,8]naphthyridine-3-carboxylic acid]",MIC,[1],≤ 0.016 µg/mL
same,MIC,[2],0.125 µg/mL
"O=C1COc2ccc(N3C[C@H](CNC4CCN(c5nc6c(cc5F)c(=O)c(C(=O)O)cn6C5CC5)CC4)OC3=O)nc2N1 [Example 20, 1-cyclopropyl-6-fluoro-4-oxo-7-(4-{[(S)-2-oxo-3-(3-oxo-3,4-dihydro-2H-pyrido[3,2-b][1,4]oxazin-6-yl)-oxazolidin-5-ylmethyl]-amino}-piperidin-1-yl)-1,4-dihydro-[1,8]naphthyridine-3-carboxylic acid]",MIC,[1],≤ 0.016 µg/mL
same,MIC,[2],≤ 0.016 µg/mL
